Test results taken from PubChem BioAssay (NCI).
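Exposure lasted 48 hours, with cells grown in 96-well plates and compounds tested at five concentrations. Abbreviation: GI50, concentration required for 50% inhibition of growth. At the TGI there is no net growth.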 Where a SMILES comes first, the peptide text is derived from it. Bridges are numbered along the chain shown (N, C = ends). Roman numbers before positions name the chains, in order. [ ]: non-standard residue; d: D form. The star is where a group is joined. Quinoxaline2carbonyl = O=C(c1cnc2ccccc2n1)*; NMeV = CN[CH](C(=O)O)C(C)C; NMeC = CN[CH](CS)C(=O)O

Assays:
Test in all cases: NCI tumour cell line growth inhibition, 48 h
[1] = test system: KM12 colon
[2] = test system: MALME-3M melanoma
[3] = test system: NCI-H226 lung
[4] = test system: OVCAR-3 ovarian
[5] = test system: OVCAR-5 ovarian
[6] = test system: SF-268 CNS
[7] = test system: SF-539 CNS
[8] = test system: SK-MEL-5 melanoma
[9] = test system: SR leukemia
[10] = test system: MDA-MB-231 breast

| Compound | TGI [1] | TGI [2] | TGI [3] | TGI [4] | TGI [5] | TGI [6] | TGI [7] | TGI [8] | TGI [9] | GI50 [1] | GI50 [2] | GI50 [10] | TGI [10] | GI50 [3] | GI50 [4] | GI50 [5] | GI50 [6] | GI50 [7] | GI50 [8] | GI50 [9] |
| --- | --- | --- | --- | --- | --- | --- | --- | --- | --- | --- | --- | --- | --- | --- | --- | --- | --- | --- | --- | --- |
| Cc1cc(N(CCC#N)CCC#N)ccc1/C=C1/N=C(c2ccccc2)N(N)C1=O | > 100 µM | > 100 µM | > 100 µM | > 100 µM | > 100 µM | > 100 µM | > 100 µM | > 100 µM |  |  |  |  |  |  |  |  |  |  |  |  |
| CC1CN1c1c(C(=O)/C=C/c2ccccc2)c(-c2ccccc2)nn(C)c1=O (stereo not drawn) | 44.2 µM | 34.9 µM | 45.3 µM | 40.8 µM | 37 µM | 56.2 µM | 30.7 µM | 29.4 µM |  |  |  |  |  |  |  |  |  |  |  |  |
| CNS(=O)(=O)NNS(=O)(=O)c1ccc(Cl)cc1 | > 100 µM | > 100 µM |  | > 100 µM | > 100 µM | > 100 µM | > 100 µM | > 100 µM | > 100 µM |  |  |  |  |  |  |  |  |  |  |  |
| CCCCCn1sc(=O)n(Cc2ccc(CNC(=O)OCc3ccc4cccc(O)c4n3)cc2)c1=O | 8.91 µM | 3 µM | 3.31 µM | 2.67 µM | 3.09 µM | 4.14 µM | 2.8 µM | 3.07 µM |  | 2.78 µM | 1.56 µM | 1.32 µM | 2.63 µM | 1.47 µM | 1.26 µM | 1.68 µM | 1.82 µM | 1.48 µM | 1.69 µM |  |
| COc1ccc(/C=N/NC(=O)Cn2c(-c3ccc(S(C)(=O)=O)cc3)nc3cc(Cl)ccc32)cc1 | > 50 µM | 46.4 µM | > 50 µM | > 50 µM | > 50 µM | > 50 µM | 3.35 µM | 8.55 µM |  | 0.979 µM | 2.3 µM | 2.48 µM | > 50 µM | 1.63 µM | 0.367 µM | 3.54 µM | 2.76 µM | 0.855 µM | 0.964 µM |  |
| CCCCCCN(N)C(=O)CC#N | > 100 µM | > 100 µM | > 100 µM | > 100 µM | > 100 µM | > 100 µM | > 100 µM | > 100 µM |  |  |  |  |  |  |  |  |  |  |  |  |
| CCOC1=C2N=C(Cc3ccccc3F)N=C2C(=O)c2ccccc21 | > 100 µM | > 100 µM | > 100 µM | > 100 µM |  | > 100 µM | > 100 µM |  | > 100 µM |  |  |  |  |  |  |  |  |  |  |  |
| CN(C)CCC(/C=C/c1ccccc1)=N\Nc1ccc(Cl)cc1Cl | 29.7 µM | 41.2 µM |  | 27.5 µM | 28.8 µM | 28.2 µM | 29 µM | 26.2 µM | 23.9 µM |  |  |  |  |  |  |  |  |  |  |  |
| c1ccc(P(=Nc2ccccc2N=P(c2ccccc2)(c2ccccc2)c2ccccc2)(c2ccccc2)c2ccccc2)cc1 | 12.8 µM |  | 1.38 µM | 0.783 µM | 7.53 µM | > 100 µM | 10.4 µM | 1.95 µM |  |  |  |  |  |  |  |  |  |  |  |  |
| COc1cc(-c2cc(-c3cc([N+](=O)[O-])c(/C=N/NC(=O)c4ccncc4)o3)ccc2OC)ccc1C |  | > 100 µM | > 100 µM | > 100 µM | > 100 µM | > 100 µM | > 100 µM |  |  |  |  |  |  |  |  |  |  |  |  |  |
| CC1(C)C2CCC13CS(=O)(=O)N1O[C@]13C(=O)O2 (stereo partly drawn) | > 100 µM | > 100 µM | > 100 µM | > 100 µM | > 100 µM | > 100 µM | > 100 µM |  | > 100 µM |  |  |  |  |  |  |  |  |  |  |  |
| O=c1[nH]cnc2c(C3NC(CO)C(O)C3O)c[nH]c12 (stereo not drawn) | > 100 µM | > 100 µM | > 100 µM | > 100 µM | > 100 µM | > 100 µM | > 100 µM | > 100 µM |  | > 100 µM | > 100 µM | > 100 µM | > 100 µM | > 100 µM | > 100 µM | > 100 µM | > 100 µM | > 100 µM | > 100 µM |  |
| O=P1(Oc2ccccc2)C(c2ccccc2)C(c2ccccc2)=NN1c1ccccc1 (stereo not drawn) | 64.4 µM | > 100 µM | 55 µM | 42.2 µM | 50.2 µM | 93.6 µM | 35.9 µM |  |  |  |  |  |  |  |  |  |  |  |  |  |
| CN(C)c1ccc(N=Nc2ccncc2)cc1 | > 100 µM | > 100 µM | > 100 µM | > 100 µM | > 100 µM | > 100 µM | > 100 µM | > 100 µM |  |  |  |  | > 100 µM |  |  |  |  |  |  |  |
| O=C([CH-]C(=O)c1ccccc1)c1ccccc1.O=C([CH-]C(=O)c1ccccc1)c1ccccc1.[OH-].[OH-].[Ti+4] | > 100 µM | > 100 µM | > 100 µM | > 100 µM | > 100 µM | > 100 µM | > 100 µM | > 100 µM |  | > 100 µM | > 100 µM |  |  | 58 µM | 51.1 µM | > 100 µM | 92.5 µM | 29.7 µM | 31.2 µM |  |
| N#Cc1ccc(N=Cc2c([O-])ccc3ccccc23)cc1.[C-]#[O+].[C-]#[O+].[Ir] | 30.2 µM | 15.1 µM |  | 15.1 µM | 36.5 µM | 29.2 µM | 29.2 µM | 26.2 µM | 20.6 µM | 16.6 µM | 4.42 µM |  |  |  | 4.02 µM | 21.7 µM | 14.8 µM | 15.2 µM | 13.4 µM | 4.17 µM |
| COC(CN1C=C(Sc2ccccc2)CC1)OC | 67.8 µM | > 100 µM | > 100 µM | 63.6 µM | > 100 µM | > 100 µM | 68.3 µM | 34.7 µM |  |  |  |  |  |  |  |  |  |  |  |  |
| CC(=O)c1c(C(F)(F)F)n([O-])c2ccc(C)cc2[n+]1=O | > 52.2 µM | 15.6 µM | 6.85 µM | > 48.2 µM | 40.3 µM | > 38.9 µM | 5.1 µM | 3 µM |  | 5.04 µM | 2.54 µM | 1.82 µM | 5.52 µM | 1.71 µM | 7.09 µM | 7 µM | 3.41 µM | 1.78 µM | 1.07 µM |  |
| COc1ccc(OC)c(C2SCC(=O)N2NC(=O)C(O)c2ccccc2)c1 (stereo not drawn) | > 100 µM | > 100 µM | > 100 µM | > 100 µM | > 100 µM | > 100 µM | > 100 µM | > 100 µM |  | > 100 µM | > 100 µM | > 100 µM | > 100 µM | > 100 µM | > 100 µM | > 100 µM | > 100 µM | > 100 µM | > 100 µM |  |
| COc1ccc2c(c1OC)C(=O)OC2C1c2c(c([N+](=O)[O-])c3c(c2OC)OCO3)CCN1C (stereo not drawn) | > 100 µM | > 100 µM | > 100 µM | > 100 µM | > 100 µM | > 100 µM | > 100 µM | > 100 µM |  | > 100 µM | > 100 µM | > 100 µM | > 100 µM | > 100 µM | > 100 µM | > 100 µM | > 100 µM | > 100 µM | > 100 µM |  |
| Cc1ccc(C2=Nc3ccccc3SC(c3cccc([N+](=O)[O-])c3)C2)cc1 (stereo not drawn) | 36.8 µM | > 100 µM | > 100 µM | 60 µM | > 100 µM | > 100 µM | 19 µM | > 100 µM |  |  |  |  | > 100 µM |  |  |  |  |  |  |  |
| COCCOCOc1ccc(OCOCCOC)c2c1C(=O)c1ccccc1C2=O | > 100 µM | > 100 µM | > 100 µM | > 100 µM | > 100 µM | > 100 µM | > 100 µM | > 100 µM |  |  |  |  |  |  |  |  |  |  |  |  |
| Cc1cc2c(c(C(=O)O)c1C)-c1cccc(F)c1C2=O | > 100 µM | > 100 µM | > 100 µM | > 100 µM | > 100 µM | > 100 µM |  | > 100 µM |  |  |  |  |  |  |  |  |  |  |  |  |
| CC1NC(=O)C(NC(=O)c2cnc3ccccc3n2)COC(=O)C(C(C)C)N(C)C(=O)C2CSSCC(C(=O)N(C)C(C(C)C)C(=O)OCC(NC(=O)c3cnc4ccccc4n3)C(=O)NC(C)C(=O)N2C)N(C)C1=O (stereo not drawn) (I: Quinoxaline2carbonyl-SA[NMeC][NMeV] / II: Quinoxaline2carbonyl-SA[NMeC][NMeV]; ester I:1-II:C, I:C-II:1; disulfide I:3-II:3; configuration not given here) | 3.17 µM | < 0.01 µM | 0.0237 µM | > 100 µM | > 4.64 µM | 0.0641 µM |  |  |  |  |  |  | 0.294 µM |  |  |  |  |  |  |  |
| CCO/C=C1\N=C(c2ccccc2Br)OC1=O |  | > 100 µM | > 100 µM | > 100 µM | > 100 µM | > 100 µM | > 100 µM |  |  |  |  |  |  |  |  |  |  |  |  |  |
| Nc1ccc(-c2nc3ccccc3[nH]2)c2ccccc12 | 16.1 µM | 21.6 µM | 37.9 µM | > 41.4 µM | > 53.5 µM | > 100 µM | 17 µM | 8.5 µM |  | 1.92 µM | 1.36 µM | 8.16 µM | > 41.7 µM | 8.44 µM | 2.5 µM | 6.08 µM | 5.93 µM | 3.11 µM | 1.65 µM |  |
| COC1O[C@@H]2C[C@H]3C(C)(C)CCC[C@]3(C)C3=CCCC1[C@@]32C (stereo partly drawn) | > 100 µM | > 100 µM | > 100 µM | > 100 µM | > 100 µM | > 100 µM | > 100 µM | > 100 µM |  | > 100 µM | > 100 µM | > 100 µM | > 100 µM | > 100 µM | > 100 µM | > 100 µM | > 100 µM | > 100 µM | > 100 µM |  |
| COc1cc2nc(NCCCCCNC(=O)c3ccco3)nc(N)c2cc1OC | 62.4 µM | 33.3 µM | 95.6 µM | 62.5 µM | > 100 µM | > 100 µM | 36.2 µM | 34.4 µM |  |  |  |  |  |  |  |  |  |  |  |  |
